# Experimental data published in article PMC5218480 (PLoS ONE, 2017).
# Test system: MV-4-11 cells
# Test: Gene expression microarray analysis (Affymetrix PrimeView) and GSEA
# Format: cell-based, human
# Set-up: RFU PODN (11730768_x_at) / Fold change /veh PODN (11730768_x_at) / RFU LINC00158 (11744669_a_at) / Fold change /veh LINC00158 (11744669_a_at) / RFU DUSP10 (11751237_a_at) / Fold change /veh DUSP10 (11751237_a_at) / RFU ID3 (11757404_x_at) / Fold change /veh ID3 (11757404_x_at) / RFU PLEKHG5 (11737974_s_at) / Fold change /veh PLEKHG5 (11737974_s_at) / RFU LRRC4B (11730491_at) / Fold change /veh LRRC4B (11730491_at) / RFU GIMAP4 (11747438_a_at) / Fold change /veh GIMAP4 (11747438_a_at) / RFU KRT8 (11758183_x_at) / Fold change /veh KRT8 (11758183_x_at) / RFU CNN1 (11734310_a_at) / Fold change /veh CNN1 (11734310_a_at) / RFU VPS37D (11726825_at) / Fold change /veh VPS37D (11726825_at) / RFU C10orf10 (11716522_x_at) / Fold change /veh C10orf10 (11716522_x_at) / RFU KIR2DL2 /// KIR2DL4 /// KIR2DL5A /// KIR2DL5B /// KIR2DS1 /// KIR2DS2 /// KIR2DS3 /// KIR2DS4 /// KIR3DL3 /// KIR3DL3 /// KIR3DS1 (11738374_at) / Fold change /veh KIR2DL2 /// KIR2DL4 /// KIR2DL5A /// KIR2DL5B /// KIR2DS1 /// KIR2DS2 /// KIR2DS3 /// KIR2DS4 /// KIR3DL3 /// KIR3DL3 /// KIR3DS1 (11738374_at) / RFU C1QL1 (11718748_at) / Fold change /veh C1QL1 (11718748_at) / RFU TMPRSS4 (11747572_a_at) / Fold change /veh TMPRSS4 (11747572_a_at) / RFU HAMP (11756126_x_at) / Fold change /veh HAMP (11756126_x_at) / RFU RNFT2 (11725882_a_at) / Fold change /veh RNFT2 (11725882_a_at) / RFU NR4A2 (11747474_a_at) / Fold change /veh NR4A2 (11747474_a_at) / RFU ABCC12 (11746883_a_at) / Fold change /veh ABCC12 (11746883_a_at) / RFU TMEM136 (11760407_x_at) / Fold change /veh TMEM136 (11760407_x_at) / RFU CLDN22 /// WWC2 (11732394_at) / Fold change /veh CLDN22 /// WWC2 (11732394_at) / RFU HLA-DPB1 (11760878_x_at) / Fold change /veh HLA-DPB1 (11760878_x_at) / RFU SPINT1 (11716480_a_at) / Fold change /veh SPINT1 (11716480_a_at) / RFU GAP43 (11754022_s_at) / Fold change /veh GAP43 (11754022_s_at) / RFU A4GNT (11735810_at) / Fold change /veh A4GNT (11735810_at) / RFU PRB3 (11715151_x_at) / Fold change /veh PRB3 (11715151_x_at) / RFU TUBB4B (11761932_at) / Fold change /veh TUBB4B (11761932_at) / RFU CAPN14 (11732068_a_at) / Fold change /veh CAPN14 (11732068_a_at) / RFU TMCC2 (11721928_a_at) / Fold change /veh TMCC2 (11721928_a_at) / RFU IRGQ (11745062_a_at) / Fold change /veh IRGQ (11745062_a_at) / RFU FAM174B (11720279_a_at) / Fold change /veh FAM174B (11720279_a_at) / RFU TMPRSS4 (11748680_a_at) / Fold change /veh TMPRSS4 (11748680_a_at) / RFU FAM212B (11763350_a_at) / Fold change /veh FAM212B (11763350_a_at) / RFU PLEKHG5 (11743358_a_at) / Fold change /veh PLEKHG5 (11743358_a_at) / RFU ZSCAN30 (11745921_a_at) / Fold change /veh ZSCAN30 (11745921_a_at) / RFU CMKLR1 (11741424_a_at) / Fold change /veh CMKLR1 (11741424_a_at) / RFU LOC101060620 /// MAPK8IP1 (11723275_at) / Fold change /veh LOC101060620 /// MAPK8IP1 (11723275_at) / RFU SPTSSB (11747773_x_at) / Fold change /veh SPTSSB (11747773_x_at) / RFU PRSS12 (11739890_at) / Fold change /veh PRSS12 (11739890_at) / RFU BIN1 (11741810_x_at) / Fold change /veh BIN1 (11741810_x_at) / RFU WNT11 (11732464_a_at) / Fold change /veh WNT11 (11732464_a_at) / RFU C10orf10 (11716521_a_at) / Fold change /veh C10orf10 (11716521_a_at) / RFU C5orf56 (11738089_at) / Fold change /veh C5orf56 (11738089_at) / RFU CYB561 (11721691_x_at) / Fold change /veh CYB561 (11721691_x_at) / RFU ANKRD19P (11752326_a_at) / Fold change /veh ANKRD19P (11752326_a_at) / RFU OR2T12 /// OR2T33 /// OR2T8 (11738714_s_at) / Fold change /veh OR2T12 /// OR2T33 /// OR2T8 (11738714_s_at) / RFU VCAN (11748164_a_at) / Fold change /veh VCAN (11748164_a_at) / RFU JSRP1 (11732532_at) / Fold change /veh JSRP1 (11732532_at) / RFU KRTAP10-11 (11738290_x_at) / Fold change /veh KRTAP10-11 (11738290_x_at) / RFU MYO3A (11730013_a_at) / Fold change /veh MYO3A (11730013_a_at) / RFU EBF3 (11725865_a_at) / Fold change /veh EBF3 (11725865_a_at) / RFU CAMK2N1 (11719241_x_at) / Fold change /veh CAMK2N1 (11719241_x_at) / RFU C5orf56 (11738088_a_at) / Fold change /veh C5orf56 (11738088_a_at) / RFU OLFML3 (11715873_a_at) / Fold change /veh OLFML3 (11715873_a_at) / RFU LOC100653217 /// NTM (11731650_a_at) / Fold change /veh LOC100653217 /// NTM (11731650_a_at) / RFU MAPK11 (11762145_a_at) / Fold change /veh MAPK11 (11762145_a_at) / RFU FIZ1 (11724087_x_at) / Fold change /veh FIZ1 (11724087_x_at) / RFU OASL (11726364_x_at) / Fold change /veh OASL (11726364_x_at) / RFU SOX15 (11748057_x_at) / Fold change /veh SOX15 (11748057_x_at) / RFU CD79A (11719716_a_at) / Fold change /veh CD79A (11719716_a_at) / RFU HIST1H1D (11736915_at) / Fold change /veh HIST1H1D (11736915_at) / RFU CASKIN2 (11723855_a_at) / Fold change /veh CASKIN2 (11723855_a_at) / RFU LOC730098 (11760151_x_at) / Fold change /veh LOC730098 (11760151_x_at) / RFU OR4N2 (11742367_at) / Fold change /veh OR4N2 (11742367_at) / RFU PRRT2 (11749266_a_at) / Fold change /veh PRRT2 (11749266_a_at) / RFU SNX32 (11753110_a_at) / Fold change /veh SNX32 (11753110_a_at) / RFU CDHR5 (11726645_a_at) / Fold change /veh CDHR5 (11726645_a_at) / RFU RCAN1 (11760418_a_at) / Fold change /veh RCAN1 (11760418_a_at) / RFU FAM167A (11723789_a_at) / Fold change /veh FAM167A (11723789_a_at) / RFU FAM26E (11764081_at) / Fold change /veh FAM26E (11764081_at) / RFU ISYNA1 (11749810_s_at) / Fold change /veh ISYNA1 (11749810_s_at) / RFU ACY1 (11761880_at) / Fold change /veh ACY1 (11761880_at) / RFU 11764098_at / Fold change /veh 11764098_at / RFU SAMD14 (11745864_x_at) / Fold change /veh SAMD14 (11745864_x_at) / RFU NPB (11741838_a_at) / Fold change /veh NPB (11741838_a_at) / RFU TMPRSS6 (11731388_a_at) / Fold change /veh TMPRSS6 (11731388_a_at) / RFU KRTAP10-2 (11738614_at) / Fold change /veh KRTAP10-2 (11738614_at) / RFU ARHGAP8 /// PRR5-ARHGAP8 (11727945_x_at) / Fold change /veh ARHGAP8 /// PRR5-ARHGAP8 (11727945_x_at) / RFU KRTAP5-7 /// NADSYN1 (11734609_at) / Fold change /veh KRTAP5-7 /// NADSYN1 (11734609_at) / RFU RASL12 (11751679_a_at) / Fold change /veh RASL12 (11751679_a_at) / RFU CDKN2B (11736163_a_at) / Fold change /veh CDKN2B (11736163_a_at) / RFU PRF1 (11729649_at) / Fold change /veh PRF1 (11729649_at) / RFU, ZNF638 /// ZNF638-IT1 / Fold change vs veh, ZNF638 /// ZNF638-IT1 / RFU, PANK3 / Fold change vs veh, PANK3 / RFU, SH3YL1 / Fold change vs veh, SH3YL1 / RFU, ZEB2 / Fold change vs veh, ZEB2 / RFU, NRIP1 / Fold change vs veh, NRIP1 / RFU, PTTG1IP / Fold change vs veh, PTTG1IP / RFU, CAPN2 / Fold change vs veh, CAPN2 / RFU, MED14 / Fold change vs veh, MED14 / RFU, SNORA58 / Fold change vs veh, SNORA58 / RFU, C1orf63 / Fold change vs veh, C1orf63 / RFU, LRRFIP1 / Fold change vs veh, LRRFIP1 / RFU, NDUFAF7 / Fold change vs veh, NDUFAF7 / RFU, SLC12A2 / Fold change vs veh, SLC12A2 / RFU, IBTK / Fold change vs veh, IBTK / RFU, ESF1 / Fold change vs veh, ESF1 / Fold change vs veh, TMEM50B / RFU, TAOK1 / Fold change vs veh, TAOK1 / RFU, ACBD3 / Fold change vs veh, ACBD3 / RFU, TMA16 / Fold change vs veh, TMA16 / RFU, RWDD3 / Fold change vs veh, RWDD3 / RFU, BCAT1 / Fold change vs veh, BCAT1 / RFU, EDEM3 / Fold change vs veh, EDEM3 / RFU, TMEM33 / Fold change vs veh, TMEM33 / RFU, WDR75 / Fold change vs veh, WDR75 / RFU, AHCTF1 / Fold change vs veh, AHCTF1 / RFU, TFRC / Fold change vs veh, TFRC / RFU, ZDHHC17 / Fold change vs veh, ZDHHC17 / RFU, NOM1 / Fold change vs veh, NOM1 / RFU, ARL8B / Fold change vs veh, ARL8B / RFU, ZBTB11 / Fold change vs veh, ZBTB11 / RFU, TAMM41 / Fold change vs veh, TAMM41 / RFU, KIAA1704 /// LOC100996395 / Fold change vs veh, KIAA1704 /// LOC100996395 / RFU, ING1 / Fold change vs veh, ING1 / RFU, TRMT61B / Fold change vs veh, TRMT61B / RFU, FUBP3 / Fold change vs veh, FUBP3 / RFU, TP53 / Fold change vs veh, TP53 / RFU, TNKS2 / Fold change vs veh, TNKS2 / RFU, ZFP14 / Fold change vs veh, ZFP14 / RFU, ACTR2 / Fold change vs veh, ACTR2 / RFU, PPP3R1 / Fold change vs veh, PPP3R1 / RFU, PIK3R1 / Fold change vs veh, PIK3R1 / RFU, HNRNPA1 / Fold change vs veh, HNRNPA1 / RFU, RNF170 / Fold change vs veh, RNF170 / RFU, ZNF28 / Fold change vs veh, ZNF28 / RFU, RNGTT / Fold change vs veh, RNGTT / RFU, OGT / Fold change vs veh, OGT / RFU, BRD1 / Fold change vs veh, BRD1 / RFU, MARS / Fold change vs veh, MARS / RFU, ZNF655 / Fold change vs veh, ZNF655 / RFU, FAHD1 / Fold change vs veh, FAHD1 / RFU, BDP1 / Fold change vs veh, BDP1 / RFU, LRRCC1 / Fold change vs veh, LRRCC1 / RFU, ARID1A / Fold change vs veh, ARID1A / RFU, ZNF146 / Fold change vs veh, ZNF146 / RFU, ZNF330 / Fold change vs veh, ZNF330 / RFU, GPN3 / Fold change vs veh, GPN3 / RFU, C9orf123 / Fold change vs veh, C9orf123 / RFU, N4BP2L2 / Fold change vs veh, N4BP2L2 / RFU, ARFIP1 / Fold change vs veh, ARFIP1 / RFU, FAM179B / Fold change vs veh, FAM179B / RFU, BCL10 / Fold change vs veh, BCL10 / RFU, UHRF1BP1L / Fold change vs veh, UHRF1BP1L / RFU, BET1 / Fold change vs veh, BET1 / RFU, CNOT2 / Fold change vs veh, CNOT2 / RFU, ZNF268 / Fold change vs veh, ZNF268 / Fold change vs veh, ZNF507 / RFU, DGCR2 / Fold change vs veh, DGCR2 / RFU, WDSUB1 / Fold change vs veh, WDSUB1 / Fold change vs veh, HSP90B1 /// MIR3652 / RFU, ADSS / Fold change vs veh, ADSS / RFU, GK / Fold change vs veh, GK / RFU, ZNF148 / Fold change vs veh, ZNF148 / RFU, TAF9 / Fold change vs veh, TAF9 / RFU, SLC1A5 / Fold change vs veh, SLC1A5 / RFU, SLMO2 / Fold change vs veh, SLMO2 / RFU, ABCC4 / Fold change vs veh, ABCC4 / RFU, LOC101060439 /// RAP1B / Fold change vs veh, LOC101060439 /// RAP1B / RFU, RFX7 / Fold change vs veh, RFX7 / RFU, GTPBP10 / Fold change vs veh, GTPBP10 / RFU, CNEP1R1 / Fold change vs veh, CNEP1R1 / RFU, BIVM-ERCC5 /// ERCC5 / Fold change vs veh, BIVM-ERCC5 /// ERCC5 / RFU, ILF3 / Fold change vs veh, ILF3 / RFU 11762660_at / Fold change /veh 11762660_at / RFU VCAN (11757783_s_at) / Fold change /veh VCAN (11757783_s_at) / RFU DDX43 (11728927_at) / Fold change /veh DDX43 (11728927_at) / RFU KRT8 (11758188_x_at) / Fold change /veh KRT8 (11758188_x_at) / RFU NKD1 (11759106_at) / Fold change /veh NKD1 (11759106_at) / RFU SRD5A1 (11742802_a_at) / Fold change /veh SRD5A1 (11742802_a_at) / RFU TPSAB1 /// TPSB2 (11721975_s_at) / Fold change /veh TPSAB1 /// TPSB2 (11721975_s_at) / RFU GSTM3 (11746129_a_at) / Fold change /veh GSTM3 (11746129_a_at) / RFU IL23R (11737362_x_at) / Fold change /veh IL23R (11737362_x_at) / RFU TMEM51 (11727254_a_at) / Fold change /veh TMEM51 (11727254_a_at) / RFU PIWIL2 (11732686_x_at) / Fold change /veh PIWIL2 (11732686_x_at) / RFU ORM1 (11744905_x_at) / Fold change /veh ORM1 (11744905_x_at) / RFU CCDC152 (11743942_at) / Fold change /veh CCDC152 (11743942_at) / RFU ECM1 (11717891_a_at) / Fold change /veh ECM1 (11717891_a_at) / RFU IL23R (11748794_a_at) / Fold change /veh IL23R (11748794_a_at) / RFU TNFAIP8L3 (11732012_x_at) / Fold change /veh TNFAIP8L3 (11732012_x_at) / RFU MBOAT4 (11741988_at) / Fold change /veh MBOAT4 (11741988_at) / RFU 11764193_at / Fold change /veh 11764193_at / RFU TMEM53 (11763286_at) / Fold change /veh TMEM53 (11763286_at) / RFU MAGEB2 (11727129_at) / Fold change /veh MAGEB2 (11727129_at) / RFU TMEM200A (11744735_a_at) / Fold change /veh TMEM200A (11744735_a_at) / RFU CCDC152 (11751479_a_at) / Fold change /veh CCDC152 (11751479_a_at) / RFU FAM211A (11726209_a_at) / Fold change /veh FAM211A (11726209_a_at) / RFU RGS16 (11746705_a_at) / Fold change /veh RGS16 (11746705_a_at) / RFU VCAN (11755009_s_at) / Fold change /veh VCAN (11755009_s_at) / RFU RHOB (11743442_s_at) / Fold change /veh RHOB (11743442_s_at) / RFU RGS16 (11720943_a_at) / Fold change /veh RGS16 (11720943_a_at) / RFU RGS16 (11720944_at) / Fold change /veh RGS16 (11720944_at) / RFU, VPS4B / Fold change vs veh, VPS4B / RFU, CREB1 / Fold change vs veh, CREB1 / RFU, DNAJC13 / Fold change vs veh, DNAJC13 / RFU, GNAQ / Fold change vs veh, GNAQ / RFU, CDK5R1 / Fold change vs veh, CDK5R1 / RFU, ZRANB3 / Fold change vs veh, ZRANB3 / RFU, CUL4A / Fold change vs veh, CUL4A / RFU, CCNY / Fold change vs veh, CCNY / RFU, UFL1 / Fold change vs veh, UFL1 / RFU, COG3 / Fold change vs veh, COG3 / RFU, DIAPH2 / Fold change vs veh, DIAPH2 / RFU, SKA2 / Fold change vs veh, SKA2 / RFU, AFF3 / Fold change vs veh, AFF3 / RFU, LMF1 / Fold change vs veh, LMF1 / RFU, IPO11 / Fold change vs veh, IPO11 / RFU, DFFB / Fold change vs veh, DFFB / RFU, FOXP1 / Fold change vs veh, FOXP1 / RFU, CARD8 / Fold change vs veh, CARD8 / RFU, STRN3 / Fold change vs veh, STRN3 / RFU, ADK / Fold change vs veh, ADK / RFU, RASSF2 / Fold change vs veh, RASSF2 / RFU, WIPF1 / Fold change vs veh, WIPF1 / RFU, LARP1B / Fold change vs veh, LARP1B / RFU, RASA1 / Fold change vs veh, RASA1 / RFU, RB1 / Fold change vs veh, RB1 / RFU, PPFIA1 / Fold change vs veh, PPFIA1 / RFU, MAT2A / Fold change vs veh, MAT2A / RFU, CCT5 / Fold change vs veh, CCT5 / RFU, WDR92 / Fold change vs veh, WDR92 / RFU, CUX1 / Fold change vs veh, CUX1 / RFU, TTC7A / Fold change vs veh, TTC7A / RFU, TMEM135 / Fold change vs veh, TMEM135 / RFU, DEPTOR / Fold change vs veh, DEPTOR / RFU, CPM / Fold change vs veh, CPM / RFU, DNAJB6 / Fold change vs veh, DNAJB6 / RFU, CACNA2D3 / Fold change vs veh, CACNA2D3 / RFU, DTX4 / Fold change vs veh, DTX4 / RFU, TFCP2 / Fold change vs veh, TFCP2 / RFU, GMCL1 /// GMCL1P1 / Fold change vs veh, GMCL1 /// GMCL1P1 / RFU, AEBP2 / Fold change vs veh, AEBP2 / RFU, SNHG1 /// SNORD22 /// SNORD25 /// SNORD26 /// SNORD27 /// SNORD28 /// SNORD29 /// SNORD31 / Fold change vs veh, SNHG1 /// SNORD22 /// SNORD25 /// SNORD26 /// SNORD27 /// SNORD28 /// SNORD29 /// SNORD31 / Fold change (Aza/veh), C12orf56 (ProbeSet 11735607_a_at) / Fold change (ACY-1035/veh), C12orf56 (ProbeSet 11735607_a_at) / Fold change (Aza/veh), FGFR1OP (ProbeSet 11751329_s_at) / Fold change (ACY-1035/veh), FGFR1OP (ProbeSet 11751329_s_at) / Fold change (Aza/veh), VPS36 (ProbeSet 11739960_a_at) / Fold change (ACY-1035/veh), VPS36 (ProbeSet 11739960_a_at) / RFU SYPL1 (11715823_x_at) / Fold change /veh SYPL1 (11715823_x_at) / RFU IGFBP7 (11715501_s_at) / Fold change /veh IGFBP7 (11715501_s_at) / RFU REEP3 (11722064_at) / Fold change /veh REEP3 (11722064_at) / RFU IGLL1 (11728026_x_at) / Fold change /veh IGLL1 (11728026_x_at): dose or concentration left out as unconfirmed
# Conditions: ProbeSet 11727827_x_at; LIST B
compound,measurement,value
Nc1ncn([C@@H]2O[C@H](CO)[C@@H](O)[C@H]2O)c(=O)n1 [azacitidine],"Fold change vs veh, NDUFAF7",0.98
